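Exposure lasted 48 hours, with cells grown in 96-well plates and compounds tested at five concentrations. At the GI50, growth is halved.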 The source made the active and inactive calls. No stated cut-off is given here; in the data, active = GI50 up to about 1.1 µM and inactive = higher.
Experiments:
Assay in all cases: growth of human tumour cells (NCI), 48 h
MCF7 = test system: MCF7
MDA-MB-435 = test system: MDA-MB-435
NCI-H226 = test system: NCI-H226
M14 = test system: M14
PC-3 = test system: PC-3
RPMI-8226 = test system: RPMI-8226
KM12 = test system: KM12
HCT-15 = test system: HCT-15
ACHN = test system: ACHN
IGROV-1 = test system: IGROV-1
SNB-19 = test system: SNB-19
SNB-75 = test system: SNB-75
MDA-MB-231 = test system: MDA-MB-231
T47D = test system: T47D
EKVX = test system: EKVX
COLO 205 = test system: COLO 205
BT-549 = test system: BT-549
SK-MEL-2 = test system: SK-MEL-2
UACC-257 = test system: UACC-257
HT-29 = test system: HT-29

Row | SMILES | GI50 (MCF7) | GI50 (MDA-MB-435) | GI50 (NCI-H226) | GI50 (M14) | GI50 (PC-3) | GI50 (RPMI-8226) | GI50 (KM12) | GI50 (HCT-15) [µM] | GI50 (ACHN) | GI50 (IGROV-1) | GI50 (SNB-19) | GI50 (SNB-75) | GI50 (MDA-MB-231) | GI50 (T47D) | GI50 (EKVX) | GI50 (COLO 205) | GI50 (BT-549) | GI50 (SK-MEL-2) | GI50 (UACC-257) | GI50 (HT-29)
1 | COc1cc(-c2cn(S(=O)(=O)c3ccc(C)cc3)c3ccccc23)nc(-c2cn(S(=O)(=O)c3ccc(C)cc3)c3ccccc23)n1 | 0.395 µM (active) | 0.18 µM (active) | 0.935 µM (active) | 0.478 µM (active) | 0.773 µM (active) | 0.375 µM (active) | 0.438 µM (active) | 0.592 | 0.927 µM (active) | 0.728 µM (active) | 0.54 µM (active) | 4.42 µM (inactive) | 0.933 µM (active) | > 100 µM (inactive) | 0.783 µM (active) | 0.745 µM (active) | 4.85 µM (inactive) | 0.984 µM (active) | 52.5 µM (inactive) | 0.573 µM (active)
2 | O=C(Nc1ccc(-c2cn3ccccc3n2)cc1)c1cc(Br)ccc1O | > 100 µM (inactive) | > 100 µM (inactive) | > 100 µM (inactive) | > 100 µM (inactive) | > 100 µM (inactive) | > 100 µM (inactive) | > 100 µM (inactive) | > 100 | > 100 µM (inactive) | > 100 µM (inactive) | > 100 µM (inactive) | > 100 µM (inactive) | > 100 µM (inactive) | > 100 µM (inactive) | > 100 µM (inactive) | > 100 µM (inactive) | > 100 µM (inactive) | > 100 µM (inactive) | > 100 µM (inactive) | > 100 µM (inactive)
3 | CC(=O)[C@H]1CC[C@H]2[C@@H]3CCC4=CC(=O)CC[C@]4(C)[C@H]3CC[C@]12C [PROGESTERONE] | 21.7 µM (inactive) | 19.8 µM (inactive) | 11.7 µM (inactive) | 17.5 µM (inactive) | 14.4 µM (inactive) | 3.24 µM (inactive) | 16.7 µM (inactive) | 18.9 | 26 µM (inactive) | 24.4 µM (inactive) | 24.1 µM (inactive) | 26.1 µM (inactive) | 17.2 µM (inactive) | 20.1 µM (inactive) | 1.16 µM (inactive) | 16 µM (inactive) | 16 µM (inactive) | 20 µM (inactive) | 12.9 µM (inactive) | 15 µM (inactive)
4 | COc1cc2oc3c(c(=O)c2c(O)c1/C=C/C(C)C)C(C=C(C)C)Oc1cc(O)ccc1-3 (stereo not given) | 14.4 µM (inactive) | 15.9 µM (inactive) | 17.9 µM (inactive) | 13.3 µM (inactive) | 15.6 µM (inactive) | 14.7 µM (inactive) | 17.2 µM (inactive) | 15.8 | 15.4 µM (inactive) | 13.5 µM (inactive) | 16.4 µM (inactive) | 15.3 µM (inactive) | 18 µM (inactive) | 16.4 µM (inactive) | 16.1 µM (inactive) | 15.1 µM (inactive) | 10.6 µM (inactive) | 16 µM (inactive) | 18.2 µM (inactive) | 14 µM (inactive)
5 | CC(=O)NCCSC(=O)c1ccccc1 | 0.0653 µM (active) | 0.18 µM (active) | 0.116 µM (active) | 0.0923 µM (active) | 0.525 µM (active) | 0.131 µM (active) | 0.449 µM (active) | 0.156 | < 0.0195 µM (active) | 1.69 µM (inactive) | 0.916 µM (active) | 0.741 µM (active) | 1.98 µM (inactive) | 0.197 µM (active) | 2.77 µM (inactive) | 0.158 µM (active) | 0.946 µM (active) | 0.295 µM (active) | 0.19 µM (active) | 0.167 µM (active)
6 | CC(C)c1[nH]nc(C(N)=O)c1/N=N/N(C)C | 28.4 µM (inactive) | 82.2 µM (inactive) | 24.1 µM (inactive) | > 100 µM (inactive) | > 100 µM (inactive) | 60.7 µM (inactive) | 61.1 µM (inactive) | > 100 | 65 µM (inactive) | > 100 µM (inactive) | > 100 µM (inactive) | 44.8 µM (inactive) | > 100 µM (inactive) | 79.6 µM (inactive) | 47.9 µM (inactive) | 67.9 µM (inactive) | 34.9 µM (inactive) | > 100 µM (inactive) | > 100 µM (inactive) | > 100 µM (inactive)
7 | C=CCOC(=O)C[C@H](NC(=O)[C@H](Cc1ccc(O)cc1)NCC(F)(F)F)C(=O)OCC=C | 53.8 µM (inactive) | 41.3 µM (inactive) | > 100 µM (inactive) | 41.7 µM (inactive) | 77.8 µM (inactive) | 36.1 µM (inactive) | > 100 µM (inactive) | > 100 | > 100 µM (inactive) | > 100 µM (inactive) | > 100 µM (inactive) | 31.6 µM (inactive) | 72.9 µM (inactive) | 23.6 µM (inactive) | 25.5 µM (inactive) | 31.8 µM (inactive) | > 100 µM (inactive) | 21.3 µM (inactive) | 20.8 µM (inactive) | > 100 µM (inactive)
8 | Cc1cccc2c(N)c3cccc(C(=O)NCC[N+](C)(C)Cc4c([N+](=O)[O-])ncn4C)c3nc12 | 12.8 µM (inactive) | 52.6 µM (inactive) | 29.2 µM (inactive) | 52.4 µM (inactive) | 36.6 µM (inactive) | 31.4 µM (inactive) | 29 µM (inactive) | 27 | 10.8 µM (inactive) | 27.3 µM (inactive) | 25.8 µM (inactive) | 27.4 µM (inactive) | 38.5 µM (inactive) | 67.8 µM (inactive) | > 66.1 µM (inactive) | 24.3 µM (inactive) | 46.1 µM (inactive) | > 80.5 µM (inactive) | 49.9 µM (inactive) | 12.7 µM (inactive)
